Patent US11779015B2, “Pesticide compositions” (FUNDACIÓ CENTRE DE REGULACIÓ GENÒMICA, priority 2017, dated 2023)

How the values were obtained:
D. santomea larvae = test: Fly larva chemotaxis assay; type: in vivo; details: 1% vol in paraffin oil, 5 minutes
Experimental: (§1) Larvae were exposed to 1% vol solution of (E)-2-hexenal or methyl benzoate in paraffin oil loaded onto the lid of a petri dish. Their movement was tracked for 5 minutes. A preference index was quantified as the fraction of time larvae spent in a zone around the odour sources. A population of 15 larvae were used per trial and they were placed in the centre of the petri dish at the start of the experiment. The average distance of the larvae to the odour sources was also quantified over time. The results of this analysis are shown on FIG. 9, for each of the conditions where a VOC of the invention was used. A total of 10 trials were performed for each condition, i.e. for each VOC and fly species, and 30 trials were performed for a control condition, for which only the solvent paraffin oil was applied.
(§2) Behavioural experiments were performed with third instar foraging larvae. A group of approximately 15 larvae per trial was placed in a Petri dish and monitored during 5 minutes for their chemotactic behaviour, as larvae were exposed to an odour gradient in gas phase emanating from the two odour sources on the lid of the Petri dish. […] Larval behaviour was tracked using a video camera and the data derived was then analysed in Matlab (MathWorks) using custom-made programs to calculate additional time-series variables, and to determine the preference index and the distance of larvae to the source.

D. suzukii = test: Positional and ovipositional preference on food substrate plated with compound; type: in vivo, Drosophila suzukii; details: for positional preference/avoidance of adult flies: food plated with compound vs blank, monitored over 5 hours
Experimental: Adult flies 200 are placed in a plastic box 600 with mesh-netting 800 in the lid to allow aeration. Two food sources 400a and 400b (for example petri dishes containing molasses-apple juice agar substrates) are placed into the box 600, of which one 600a is plated with a compound to be tested, and the other 600b is left blank as a control.
Using this experimental set up and pure (E)-2-hexenal or methyl benzoate, the positional preference of the flies was monitored over 5 hours. The ovipositional preference was measured after 24 hours by counting the number of eggs laid on either plate. […] The same experimental set up was used to test for positional and ovipositional preference using different concentrations of (E)-2-hexenal, i.e. 1.2% vol, 3.4% vol, 11.6% vol and 34% vol. The results of these assays are shown on FIG. 7C. All data shown represents the mean+S.E.M. over 2 to 6 trials per condition. In FIG. 7C, deviations marked by a star are associated with a unpaired t-test p-value below 0.05 following a one-way ANOVA test with F(4,22)=3.987 (p=0.017).
Petri dishes (∅ 6 cm) filled with 10 ml of a molasses-apple juice-agar medium acted as food substrate. These were plated with methyl benzoate or (E)-2-hexenal. Two Petri dishes were placed inside a plastic box (32×22×12 cm) with a mesh netting in the lid. One dish was plated with a thin layer of pure odour (1.8 μl (E)-2-hexenal or 0.9 μl methyl benzoate when used pure, or 50 μl of (E)-2-hexenal when used in diluted solutions), and the other was left blank as a control. More (E)-2-hexenal was used because its vapour pressure is 4 times lower than that of methyl benzoate and, thus, is prone to dissipate faster. 20 mixed sex adult flies were placed inside the plastic box and monitored every 0.5 hours, over a period of 5 hours, to assess their positional preference by counting the number of flies positioned on either plate. After 24 hours, their ovipositional preference was monitored by counting the number of eggs laid on either dish. Flies were cooled on ice for handling and discarded after each trial.

D. melanogaster = test: Airborne toxicity petri dish assay, adult flies exposed to VOC vapours (FIG. 1A); type: in vivo, Drosophila melanogaster; details: for LD50 (expected concentration at which 50% of the flies die): D. melanogaster adults, vapours from solution in paraffin oil, within an hour
Source text: In particular, adult flies 2 were exposed to compositions 4 comprising one or more of a selection of VOCs according to the invention or a comparative example, in a petri dish 6. The compositions 4 were loaded onto the lid 6a of the petri dish 6 and the flies were placed into the base 6b of the dish, which was then covered by a sheet of plastic mesh netting 8 to avoid direct contact of the flies 2 with the compositions 4, before replacing the lid 6a. The onset of paralysis/loss of locomotion control, ultimately resulting in death of the flies 2, was monitored over a period of 1 hour or until all flies 2 were dead, determined when fly wings were vertical (similar to the protocol described in Legal et al. 1992 and 1994).
Having established that the VOCs of the invention are toxic to Drosophila spp., and in particular, D. suzukii, upon exposure to the vapours from a 10% vol. solution, the inventors set out to determine the range of concentrations at which the pesticide VOCs of the invention are expected to be lethal to Drosphila spp. Two species were chosen: the pest D. suzukii and the common Drosophila model D. melanogaster. Two exemplary compounds were chosen: (E)-2-hexenal and methyl benzoate, both of which were shown in Example 1 to be highly toxic to D. suzukii. The experimental set up used was as described in relation to FIG. 1A.
FIGS. 3A and 3C show the proportion of dead flies as a function of time in minutes, when exposed to the vapours of (E)-2-hexenal (FIG. 3A) or methyl benzoate (FIG. 3C) from a 1%, 5%, 10%, or 20% solution in paraffin oil or from pure (E)-2-hexenal or methyl benzoate. […] The data is shown as averages±SEM based on 3 to 6 trials for each condition. […]

D. melangaster larvae = test: Fly larva chemotaxis assay; type: in vivo, Drosophila melanogaster; details: D. melanogaster larvae, 1% vol in paraffin oil, 5 minutes
Experimental: as §1, §2

[1] = test system: honeybees (Apis mellifera); test: Airborne toxicity on honeybees in the petri dish assay; type: in vivo; details: applied concentration 4%, paraffin oil, 24 hours
[2] = test system: larvae of the other species of the Drosophila melanogaster species group; test: Fly larva chemotaxis assay; type: in vivo, Drosophila spp.; details: 1% vol in paraffin oil, 5 minutes
Experimental: as §1, §2

adult D. suzukii flies = test: Petri dish assay, dose-range 0.3 to 10% vol in paraffin oil, 24 h exposure (FIG. 3E); type: in vivo, Drosophila suzukii; details: paraffin oil, 24 h exposure (Example 2)
Source text: Data are represented as mean proportion of dead flies, with counts separated between male (as indicated by ‘M’) and female (as indicated by ‘F’) flies. […] Data points marked NaN were not tested at the indicated concentration. The MEC column summarises the minimal effective concentration to induce 100% morbidity/mortality to adult D. suzukii flies.

[3] = D. melanogaster, concentration 1% vol
[4] = D. melanogaster, concentration 5% vol
[5] = D. melanogaster, concentration 10% vol
[6] = D. melanogaster, concentration 20% vol
[7] = D. melanogaster, concentration 100% vol

| Compound | larval chemotactic response (D. santomea larvae) | positional preference/avoidance of adult flies (D. suzukii) | ovipositional preference (egg-laying) (D. suzukii; food plated with pure compound vs blank, eggs counted after 24 hours) | LD50 (expected concentration at which 50% of the flies die) (D. melanogaster) | T50 (D. melanogaster; D. melanogaster, 10% vol) | T50 (time at which 50% of the flies were dead) (D. melanogaster; [3]) | T50 (time at which 50% of the flies were dead) (D. melanogaster; [4]) | T50 (time at which 50% of the flies were dead) (D. melanogaster; [5]) | T50 (time at which 50% of the flies were dead) (D. melanogaster; [6]) | T50 (time at which 50% of the flies were dead) (D. melanogaster; [7]) | larval chemotactic response (D. melangaster larvae) | Percentage of dead honey bee adults (%) [1] | concentration from which flies avoid laying their eggs on the plated side (D. suzukii; tested 1.2, 3.4, 11.6 and 34% vol, eggs counted after 24 hours) | larval chemotactic response [2] | Minimal concentration (%) to induce 100% morbidity/mortality in D. suzukii adults (adult D. suzukii flies) |
| --- | --- | --- | --- | --- | --- | --- | --- | --- | --- | --- | --- | --- | --- | --- | --- |
| COC(=O)c1ccccc1 [methyl benzoate, Methyl benzoate] | strongly attractive | stronger avoidance response | strong egg-laying deterrent | 7.5 % vol | 18.2 min | non lethal | non lethal | 18.2 min | 9.8 min | 9.1 min | attractive | – | – | – | – |
| CCC/C=C/C=O [(E)-2-hexenal] | – | relatively weak | – | 13.8 % vol | – | not lethal | not lethal | not lethal | 6.5 min | 6.2 min | – | 0% | ≥ 3.4 % vol | attractive chemotactic responses | 4% |
